From ChEMBL document CHEMBL5137014, “Insight on pyrimido[5,4-g]indolizine and pyrimido[4,5-c]pyrrolo[1,2-a]azepine systems as promising photosensitizers on malignant cells” (Eur J Med Chem, 2022)
Active and inactive are the calls of the source. The calls are words filed in the database; no cut-off is given here.

Tests used:
[1] = system: MDA-MB-231; assay: Dark toxicity against human MDA-MB-231 cells assessed as cell viability after 72 hrs by MTT assay; assay type: functional, cell-based; conditions: MDA-MB-231, 72 h
[2] = system: MDA-MB-231; assay: Phototoxicity against human MDA-MB-231 cells assessed as cell viability incubated for 1 hr followed by irradiated with 2 J/cm^2 of light dose measured after 72 hrs by MTT assay; assay type: functional, cell-based; conditions: MDA-MB-231, light or radiation study
[3] = Selectivity index, ratio of IC50 for dark toxicity against human MDA-MB-231 cells to IC50 for phototoxicity against human MDA-MB-231 cells irradiated with 2 J/cm^2 of light dose; assay type: cell-based; conditions: read-out: Ratio IC50
[4] = Induction of superoxide anion generation irradiated with 560 nm LED light; assay type: functional
[5] = system: DNA; assay: Induction of DNA damage in Escherichia coli pBR322 DNA assessed as open circular DNA irradiated with 7.5 J/cm^2 UV light dose relative to control; assay type: nucleic-acid assay
[6] = system: DNA; assay: Induction of DNA damage in Escherichia coli pBR322 DNA assessed as open circular DNA irradiated with 15 J/cm^2 UV light dose relative to control; assay type: nucleic-acid assay
[7] = system: DNA; assay: Induction of DNA damage in Escherichia coli pBR322 DNA assessed as supercoiled DNA irradiated with 7.5 J/cm^2 UV light dose relative to control; assay type: nucleic-acid assay
[8] = system: DNA; assay: Induction of DNA damage in Escherichia coli pBR322 DNA assessed as supercoiled DNA irradiated with 15 J/cm^2 UV light dose relative to control; assay type: nucleic-acid assay
[9] = system: DNA; assay: Induction of DNA damage in Escherichia coli pBR322 DNA assessed as supercoiled DNA relative to control; assay type: nucleic-acid assay
[10] = system: DNA; assay: Induction of DNA damage in Escherichia coli pBR322 DNA assessed as open circular DNA relative to control; assay type: nucleic-acid assay
[11] = system: HCC1954; assay: Phototoxicity against human HCC1954 cells assessed as cell viability incubated for 1 hr followed by irradiated with 2 J/cm^2 of light dose measured after 24 hrs by resazurin assay; assay type: functional, cell-based; conditions: HCC1954, light or radiation study
[12] = system: T-24; assay: Phototoxicity against human T24 cells assessed as cell viability incubated for 1 hr followed by irradiated with 2 J/cm^2 of light dose measured after 24 hrs by resazurin assay; assay type: functional, cell-based; conditions: T-24, light or radiation study
[13] = Induction of singlet oxygen in phosphate buffer assessed as RNO bleaching at pH 7.3 irradiated with 440 nm LED light by spectrophotometry; assay type: functional
[14] = system: MDA-MB-231; assay: Induction of reactive oxygen species production in human MDA-MB-231 cells assessed as increase in hydrogen peroxide production incubated for 1 hr followed by irradiated with 2 J/cm^2 of light dose by CM-H2DCFDA dye based fluorescence assay; assay type: functional, cell-based
[15] = system: MDA-MB-231; assay: Induction of reactive oxygen species production in human MDA-MB-231 cells assessed as decrease in thiol formation incubated for 1 hr followed by irradiated with 2 J/cm^2 of light dose after 24 hrs by DTNB assay; assay type: functional, cell-based; conditions: time 25.0 hrs, TDE = time-dependent effect
[16] = system: MDA-MB-231; assay: Induction of apoptosis in human MDA-MB-231 cells assessed as chromatin condensation and fragmentation at IC50 measured after 24 hrs by Hoechst staining based microscopic analysis; assay type: functional
[17] = system: MDA-MB-231; assay: Induction of apoptosis in human MDA-MB-231 cells assessed as pyknotic nuclei at IC50 measured after 24 hrs by Hoechst staining based microscopic analysis; assay type: functional
[18] = system: T-24; assay: Induction of apoptosis in human T24 cells assessed as apoptotic cells at IC50 followed by irradiated with 2 J/cm^2 of light dose after 24 hrs annexin-V-PI staining based flow cytometry; assay type: functional, cell-based
[19] = system: T-24; assay: Induction of apoptosis in human T24 cells assessed as necrotic cells at IC50 followed by irradiated with 2 J/cm^2 of light dose after 24 hrs annexin-V-PI staining based flow cytometry; assay type: functional, cell-based

| Compound | IC50 [1] [µM] | IC50 [2] [µM] | selectivity ratio [3] | other results |
| --- | --- | --- | --- | --- |
| c1cc2n(c1)CCc1cnc(NC3CCCC3)nc1-2 | 0.91 | 0.86 | 1.1 | – |
| CC(C)OC(=O)c1ccc2n1CCc1cnc(N)nc1-2 | 11.9 | 14.5 | 0.8 | – |
| CC(C)OC(=O)c1ccc2n1CCCc1cnc(Nc3ccccc3)nc1-2 | > 50 | 14.3 | > 3.5 | – |
| CC(C)OC(=O)c1ccc2n1CCc1cnc(NC3CCCC3)nc1-2 | > 50 | 13.4 | > 3.7 | – |
| CC(=O)Nc1ncc2c(n1)-c1cccn1CC2 | > 50 | 14.8 | > 3.4 | – |
| CCOC(=O)c1ccc2n1CCc1cnc(NC(C)=O)nc1-2 | > 6.25 | 0.9 | > 7 | – |
| CC(C)OC(=O)c1ccc2n1CCCc1cnc(NC3CCCC3)nc1-2 | > 50 | 5.76 | > 8.7 | – |
| CC(C)OC(=O)c1ccc2n1CCc1cnc(NC3CCCCC3)nc1-2 | > 50 | 12.5 | > 4 | Activity [4]: Active; Activity [5]: 40.3%; Activity [6]: 63.4%; Activity [7]: 59.7%; Activity [8]: 36.6%; Activity [9]: 81.3%; Activity [10]: 18.7% |
| CC(=O)Nc1ncc2c(n1)-c1ccc(C(=O)OC(C)C)n1CC2 | > 50 | 13.1 | > 3.8 | – |
| CCOC(=O)c1ccc2n1CCc1cnc(NC3CCCC3)nc1-2 | > 50 | > 50 | – | – |
| Nc1ncc2c(n1)-c1cccn1CC2 | > 50 | 6.81 | > 7.3 | – |
| CCOC(=O)c1ccc2n1CCc1cnc(NC3CCCCC3)nc1-2 | 1.74 | 0.82 | 2.1 | IC50 [11]: 0.9 µM; IC50 [12]: 0.96 µM; Activity [13]: Active; Activity [4]: Active; Activity [14]: Active; Activity [15]: Tde; Activity [5]: 21.6%; Activity [6]: 16.5%; Activity [7]: 78.4%; Activity [8]: 83.5%; Activity [9]: 83.4%; Activity [10]: 16.6%; Activity [16]: 83.4%; Activity [17]: 86.2%; Activity [18]: Active; Activity [19]: Active |
| CC(C)OC(=O)c1ccc2n1CCCc1cnc(NC3CCCCC3)nc1-2 | > 50 | 3.75 | > 13.3 | Activity [4]: Active; Activity [5]: 49.5%; Activity [6]: 49.9%; Activity [7]: 50.5%; Activity [8]: 50.1%; Activity [9]: 61.5%; Activity [10]: 38.5% |
| c1ccc(Nc2ncc3c(n2)-c2cccn2CC3)cc1 | > 50 | 5.55 | > 9 | – |
| CC(=O)Nc1ncc2c(n1)-c1ccc(C(=O)OC(C)C)n1CCC2 | > 50 | 17.2 | > 2.9 | – |
| CCOC(=O)c1ccc2n1CCCc1cnc(NC(C)=O)nc1-2 | 27.9 | 1.46 | 19.1 | – |
| CC(C)OC(=O)c1ccc2n1CCc1cnc(Nc3ccccc3)nc1-2 | > 50 | > 50 | – | – |
| CCOC(=O)c1ccc2n1CCCc1cnc(N)nc1-2 | > 50 | > 50 | – | – |
| CCOC(=O)c1ccc2n1CCCc1cnc(Nc3ccccc3)nc1-2 | > 50 | 5.45 | > 9.2 | – |
| CC(C)OC(=O)c1ccc2n1CCCc1cnc(N)nc1-2 | 5.87 | 5.76 | 1 | – |
| CCOC(=O)c1ccc2n1CCCc1cnc(NC3CCCC3)nc1-2 | 1.41 | 0.9 | 1.5 | – |
| CCOC(=O)c1ccc2n1CCCc1cnc(NC3CCCCC3)nc1-2 | 5.44 | 0.45 | 12.1 | IC50 [11]: 1.5 µM; IC50 [12]: 0.9 µM; Activity [13]: Active; Activity [4]: Active; Activity [14]: Active; Activity [15]: Tde; Activity [5]: 23.9%; Activity [6]: 25.3%; Activity [7]: 76.1%; Activity [8]: 74.7%; Activity [9]: 86.2%; Activity [10]: 13.8%; Activity [16]: 81.3%; Activity [17]: 61.5%; Activity [18]: Active; Activity [19]: Active |
| c1cc2n(c1)CCc1cnc(NC3CCCCC3)nc1-2 | > 50 | 3 | > 16.7 | – |
